Reference: patent US10828372B2, “Compositions and methods for the inhibition of fibrosis” (WISCONSIN ALUMNI RESEARCH FOUNDATION, priority 2017, dated 2020)
Where no end group is shown, it is not given here. PEG10kDa = 10 kDa linear methoxy-PEG propionaldehyde on the N-terminus; PEG20kDa = 20 kDa linear methoxy-PEG propionaldehyde on the N-terminus

Tests used:
[1] = system: Alexa 488-labeled human plasma FN; assay: Matrix Assembly in vitro Assay (MAA), A488-FN deposition by AH1F fibroblasts; type: cell-based; details: 24 hours, viability-normalized fluorescence, n=4, FUD run alongside each conjugate
Chain of Alexa 488-labeled human plasma FN (P02751 32-608 limits assumed): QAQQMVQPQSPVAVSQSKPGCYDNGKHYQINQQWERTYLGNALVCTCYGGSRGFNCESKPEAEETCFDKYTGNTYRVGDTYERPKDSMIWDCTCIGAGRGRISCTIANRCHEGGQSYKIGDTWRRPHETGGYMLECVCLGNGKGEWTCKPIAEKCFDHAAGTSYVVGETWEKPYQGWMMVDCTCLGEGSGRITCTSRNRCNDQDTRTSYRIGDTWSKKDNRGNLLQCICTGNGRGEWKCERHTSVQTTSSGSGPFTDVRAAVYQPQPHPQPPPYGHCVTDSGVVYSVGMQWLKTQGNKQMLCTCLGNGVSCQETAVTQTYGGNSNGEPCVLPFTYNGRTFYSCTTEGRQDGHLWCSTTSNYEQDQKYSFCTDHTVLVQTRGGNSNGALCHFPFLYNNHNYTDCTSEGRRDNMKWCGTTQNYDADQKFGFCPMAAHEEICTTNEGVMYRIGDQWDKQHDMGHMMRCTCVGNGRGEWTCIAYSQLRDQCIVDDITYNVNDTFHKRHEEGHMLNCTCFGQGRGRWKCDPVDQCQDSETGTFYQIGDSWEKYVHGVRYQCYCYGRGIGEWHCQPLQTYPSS
Description: Matrix Assembly Assay: The matrix assembly assay was conducted in the 96-well plate format as described in the art. AH1F human skin fibroblast cells resuspended in 2% fetal bovine serum were added to each well for a density of 60,000 cells per well. A 1 hr incubation period at 37° C. followed to allow cell adhesion and spreading. FUD, PEG-FUD, or PEG-mFUD were added to each well following incubation. Immediately, Alexa Fluor® 488 fluorescence labeled human plasma fibronectin (A488-FN) was then added to each well for a final FN concentration of 11 μg/mL. The cells were then incubated for 24 hours at 37° C. Non-assembled FN was removed from each well by washing with Hank's Balanced Salt Solution (HBSS) containing Ca^2+ and Mg^2+. The well volume was restored to 60 μL with HBSS and a fluorescence reading from the bottom of each well was taken using a Synergy™ H1 (Biotek) plate reader (excitation: 485 nm, Emission: 538 nm). Cell viability was quantified using CellTiter-Glo® cell viability assay using the manufacturer's protocol. A 30 μL aliquot of HBSS was removed from each well and was replaced with 30 μL of the luminescence reagent prepared shortly beforehand. Luminescence was quantified using the same plate reader. The average of fluorescence values of a no A488FN or inhibitor control group were routinely subtracted from the readings of each well and were normalized using each well's corresponding luminescence value. Lastly, the cell viability normalized fluorescence values were expressed as a percentage of the 0 nM drug control group. The final results were processed using Graphpad Prism 7.0 software. IC50 values were extracted using a four-parameter dose-response curve function. Student's t test was used to determine significance of differences among peptides at a given drug concentration.
The PEG-FUD FN fibrillogenesis inhibitory performance was evaluated in vitro using the matrix assembly assay (MAA). The methodology of this assay is depicted in FIG. 8. The MAA quantifies ECM deposition of exogenous AlexaFluor® 488-labeled FN (A488FN) by a confluent monolayer of fibroblasts after an incubation period by measuring fluorescence of deposited FN. In this study, the performance of PEG-FUD peptides was compared to that of FUD and the PEG-mFUD control peptide using the AH1F human foreskin fibroblast cell line.

[2] = Fluorescence imaging (IVIS) of subcutaneous dose absorption; type: in vivo, mouse; details: for % dose remaining at the site of injection after 24 hours / apparent half-life at the site of injection: s.c. 12.5 mg/kg FUD equivalents; for apparent half-life at the site of injection: spiked with 1.5% Cy5 labeled drug, nude mice
Description: Preparation of Animal Experiment FUD and 10-40 kDa PEG-FUD Drug Dose: A 12.5 mg FUD equivalents per kg of mouse weight drug dose spiked with 1.5% Cy5 labeled drug was prepared by mixing an appropriate amount of unlabeled and labeled drug in a conical vial. The drug was then dialyzed ON into phosphate buffered saline (pH 7.4) using a 3000 MWCO dialysis membrane. The total volume of the dose was reduced to the appropriate value using a 3000 MWCO Amicon® Ultra-15 centrifugal unit. The final concentration of the drug was determined using a UV-vis spectrophotometer and the 646 nm extinction coefficient of Cy5, ε=271000 L·mol^−1·cm^−1.
10 week old mice weighing 20-23 g were placed under 2% isoflurane anesthesia and positioned on their abdomen inside of an IVIS Spectrum In Vivo Imaging System. A 100 uL dose containing 0.27 mg (12.5 mg/kg) of FUD or FUD equivalents of 10-40 kDa PEG-FUD that was spiked with 1.5% Cy5 labeled drug was delivered subcutaneously between the shoulder blades of the animals (n=3 per treatment group). The animals were imaged before the injection, immediately following injection, and at time points of 30 minutes and 1, 3, 6, 12, 24, 36, and 48 hours. The animals were sacrificed following the last time point and their organs were harvested for ex vivo fluorescence imaging and drug extraction and quantification. LivingImage® (PerkinElmer) software was used to analyze the views of each animal group. The autodraw feature of the software set to a 5% threshold was used to create unique regions of interest (ROI) on each animal at t=30 mins views that were consistently applied to each subsequent time point views to quantify drug levels present at the site of injection. Baseline autoflorescence values calculated from ROIs applied to “before injection” views were subtracted from the values of each time point's animals. The ROI values obtained from the t=30 mins views were used to calculate % dose remaining for each subsequent time point.

[3] = molecular target: human plasma FN; assay: Isothermal Titration calorimetry (ITC) of peptide binding to fibronectin; details: pH 7.4 PBS, 25° C., triplicate
Chain of human plasma FN (P02751 32-608 limits assumed): as above
Description: Isothermal Titration calorimetry (ITC): ITC experiments were performed using a VP-ITC microcalorimeter (MicroCal, LLC) with a cell volume of 2.2 mL. In a typical experiment, the cell was filled with 1.4 mL of 2 μM human plasma FN and the syringe was filled with 1 mL of 28 μM FUD or PEG-FUD peptides. The temperature was set to 25° C. The titration experiment was performed in 39 injections (1×1, 4×4, and 34×8 μL) delivered in 120 sec intervals. Prior to injection, both FN and the peptides were dialyzed in separate dialysis bags overnight into the same PBS buffer (pH 7.4) solution. Routine analysis involved discarding of the first data point and subtraction of peptide into PBS buffer control run. Data were fit using one set of sites model Lavenberg-Marquardt nonlinear regression in Origin 7.0.
The binding of 10 kDa, 20 kDa, and 40 kDa PEG-FUD to FN was studied using Isothermal Titration calorimetry (ITC). This technique was used to determine the thermodynamic parameters as well as the binding constant (Kd) of the interaction. The peptide was injected into a human plasma FN solution in PBS at pH 7.4 and 25° C. in triplicate runs. […] A Kd of 6 (±3) nM was detected for FUD:FN. […] Similar entropy change of −65 (±3) cal/mol, −74 (±7) cal/mol, −66 (±7) cal/mol, and −73 (±2) and enthalpy change of −31 (±1) kcal/mol, −34 (±2) kcal/mol, −30 (±1) kcal/mol, and −32.5 (±0.5) kcal/mol were detected for the interaction of FUD and 10 kDa, 20 kDa, and 40 kDa PEG-FUD with FN, respectively. […] This observation is contrary to the expectation of PEG attachment diminishing a drug's affinity for its binding partner and presents an unexpected but desired feature of the PEG-FUD peptide.

[4] = literature examples; cited from earlier work

10 kDa PEG-FUD: FUD N-terminally mono-PEGylated with 10 kDa linear methoxy-PEG propionaldehyde (PEG10kDa-KDQSPLAGESGETEYITEVYGNQQNPVDIDKKLPNETGFSGNMVETEDT)
IC50 [1]: 17 nM
migration into the site of injury (ear tag wound) ([2]; fluorescence imaging): migration of 10 K PEG-FUD into the site of injury
% dose remaining at the site of injection after 24 hours [2]: 1.2%
apparent half-life at the site of injection [2]: 2.8 h
Kd [3]: 4.6 nM

20 kDa PEG-FUD: FUD N-terminally mono-PEGylated with 20 kDa linear methoxy-PEG propionaldehyde (PEG20kDa-KDQSPLAGESGETEYITEVYGNQQNPVDIDKKLPNETGFSGNMVETEDT)
IC50 [1]: 23 nM
% dose remaining at the site of injection after 24 hours [2]: 3.5%
apparent half-life at the site of injection [2]: 6.2 h
Kd [3]: 10 nM

40 kDa PEG-FUD: FUD N-terminally mono-PEGylated with 40 kDa branched methoxy-PEG propionaldehyde ({mPEG 40 kDa branched}-KDQSPLAGESGETEYITEVYGNQQNPVDIDKKLPNETGFSGNMVETEDT)
IC50 [1]: 20 nM
% dose remaining at the site of injection after 24 hours [2]: 7.9%
apparent half-life at the site of injection [2]: 8.7 h
Kd [3]: 14.7 nM

PEG-G120K-GH: literature example of a PEGylated protein with reduced activity
reduction of activity upon PEGylation [4]: 186 fold
